In US12583866B2, “Pyrido[2,3-b][1,4]oxazines or tetrahydropyrido[2,3-b][1,4]oxazepines as IAP antagonists” (BEIGENE, LTD., priority 2020, dated 2026):

Legend:
[1] = molecular target: T1, recombinant human XIAP-BIR3 protein (Homo sapiens, UniProt P98170); assay: Recombinant human XIAP-BIR3 biochemical assay (HTRF, peptide displacement); details: 3.7 nM XIAP-BIR3, 7.6 nM AbuRPF-K(5-Fam)-NH2 peptide, read-out: Protein binding IC50 (nM) XIAP
T1 construct: recombinant human XIAP-BIR3 protein; purchased Reaction biology APT-11-374
How it was run: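 HTRF peptide displacement with 7.6 nM 5-Fam-labelled AbuRPF peptide, anti-6His Tb donor and 3.7 nM recombinant XIAP-BIR3. Protein and compound (10-point, 4-fold from 10 µM) were preincubated 1 h RT in HEPES pH 7.5 buffer before each addition, each 1 h. IC50 by four-parameter fit of the 520/490 nm ratio.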

[2] = molecular target: T2, recombinant human cIAP1-BIR3 protein (Homo sapiens, UniProt Q13490); assay: Recombinant human c-IAP1-BIR3 biochemical assay (HTRF, peptide displacement); details: 1.2 nM cIAP1-BIR3, 3 nM AbuRPF-K(5-Fam)-NH2 peptide, read-out: Protein binding IC50 (nM) c-IAP1
T2 construct: recombinant human cIAP1-BIR3 protein; purchased Reaction biology APT-11-370
How it was run: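 HTRF peptide displacement: after 1 h compound pre-incubation (max 10 uM, 4-fold dilutions, 10 points) with 1.2 nM protein in HEPES pH 7.5 buffer, 3 nM 5-Fam-labelled AbuRPF-K peptide and Tb-anti-6His were each added for 1 h at room temperature. Inhibition taken from 520/490 nm ratio, fitted four-parameter logistic for IC50.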

[3] = molecular target: T3, recombinant human cIAP2-BIR3 protein (Homo sapiens, UniProt Q13489); assay: Recombinant human c-IAP2-BIR3 biochemical assay (HTRF, peptide displacement); details: 3.7 nM cIAP2-BIR3, 3.7 nM AbuRPF-K(5-Fam)-NH2 peptide, read-out: Protein binding IC50 (nM) c-IAP2
T3 construct: recombinant human cIAP2-BIR3 protein; purchased Reaction biology APT-11-372
How it was run: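 HTRF peptide-displacement readout (ex337, em520/490 ratio) after sequential 1 h room-temperature steps: compound with 3.7 nM protein, then 3.7 nM 5-Fam-labelled AbuRPF peptide, then Tb-cryptate anti-6His antibody. Buffer pH 7.5 HEPES with NaCl, Tween-20, DTT; 10-point 4-fold dilutions from 10 uM; four-parameter logistic IC50.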

T3 sequence (Q13489 238-349 limits assumed): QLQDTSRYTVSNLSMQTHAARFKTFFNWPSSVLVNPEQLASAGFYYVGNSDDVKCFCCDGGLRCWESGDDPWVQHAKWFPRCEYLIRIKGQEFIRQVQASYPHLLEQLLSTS
T1 sequence (P98170 241-356 limits assumed): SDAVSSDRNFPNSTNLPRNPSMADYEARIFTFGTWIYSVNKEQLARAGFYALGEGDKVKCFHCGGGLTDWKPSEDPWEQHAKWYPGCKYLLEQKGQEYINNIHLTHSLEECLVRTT
T2 sequence (Q13490 253-363 limits assumed): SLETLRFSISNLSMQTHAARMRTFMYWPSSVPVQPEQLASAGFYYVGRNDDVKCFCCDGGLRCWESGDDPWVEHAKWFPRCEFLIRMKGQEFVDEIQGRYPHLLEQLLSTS

| SMILES | IC50 [1] | IC50 [2] | IC50 [3] |
| --- | --- | --- | --- |
| C[C@@H]1CN(CC(=O)N2c3cc(Cc4ccc(F)cc4)c(NCCO)nc3OC[C@@H]2C)[C@@H](CN2[C@H](C)COC[C@H]2C)CN1 [Compound 109] | 10.3 nM | 0.24 nM | 0.45 nM |
| C[C@@H]1CN(CC(=O)N2c3cc(Cc4ccc(F)cc4)c(C(=O)NC4CC4)nc3OC[C@@H]2C)[C@@H](CN2[C@H](C)COC[C@H]2C)CN1 [Example 63] | 3.2 nM | 0.17 nM | 0.23 nM |
| CC(C)OC[C@@H]1COCCN1C[C@H]1CN[C@H](C)CN1CC(=O)N1c2cc(Cc3ccc(F)cc3)c(C(N)=O)nc2OC[C@@H]1C [Example 62, (S)-7-(4-fluorobenzyl)-1-(2-((2R,5R)-2-(((S)-3-(isopropoxymethyl)morpholino)methyl)-5-methylpiperazin-1-yl)acetyl)-2-methyl-2,3-dihydro-1H-pyrido[2,3-b][1,4]oxazine-6-carboxamide] | 8.1 nM | 0.33 nM | 0.73 nM |
| C[C@@H]1CN(CC(=O)N2c3cc(Cc4ccc(F)cc4)c(CO)nc3OC[C@@H]2C)[C@@H](CN2C[C@H](C)OC[C@H]2C)CN1 [Compound 49] | 3.6 nM | 0.3 nM | 0.48 nM |
| C[C@@H]1CN(CC(=O)N2c3cc(Cc4ccc(F)cc4)c(CO)nc3OC[C@@H]2C)[C@@H](CN2CCOC[C@H]2C2CC2)CN1 [Example 84A, 2-((2R,5R)-2-(((R)-3-cyclopropylmorpholino)methyl)-5-methylpiperazin-1-yl)-1-((S)-7-(4-fluorobenzyl)-6-(hydroxymethyl)-2-methyl-2,3-dihydro-1H-pyrido[2,3-b][1,4]oxazin-1-yl)ethan-1-one] | 6.4 nM | 0.29 nM | 0.44 nM |

More lines, now with the values ahead:

| IC50 [1] | IC50 [2] | IC50 [3] | SMILES |
| --- | --- | --- | --- |
| 122 nM | 3.6 nM | 9.8 nM | C[C@@H]1CN(CC(=O)N2CCOc3ncc(Cc4ccc(F)cc4)cc32)[C@@H](CN2C[C@H]3C[C@@H]2CO3)CN1 [Compound 14] |
| 8.4 nM | 0.34 nM | 0.85 nM | C[C@@H]1CN(CC(=O)N2CCOc3ncc(Cc4ccc(F)cc4)cc32)[C@@H](CN2[C@H](C)COC[C@H]2C)CN1 [Compound 16, 2-((2R,5R)-2-(((3R,5R)-3,5-dimethylmorpholino)methyl)-5-methylpiperazin-1-yl)-1-(7-(4-fluorobenzyl)-2,3-dihydro-1H-pyrido[2,3-b][1,4]oxazin-1-yl)ethan-1-one] |
| 5.5 nM | 0.23 nM | 0.41 nM | CNC(=O)c1nc2c(cc1Cc1ccc(F)cc1)N(C(=O)CN1C[C@@H](C)NC[C@@H]1CN1[C@H](C)COC[C@H]1C)[C@@H](C)CO2 [Example 68, (S)-1-(2-((2R,5R)-2-(((3R,5R)-3,5-dimethylmorpholino)methyl)-5-methylpiperazin-1-yl)acetyl)-7-(4-fluorobenzyl)-N,2-dimethyl-2,3-dihydro-1H-pyrido[2,3-b][1,4]oxazine-6-carboxamide] |
| 5.9 nM | 0.25 nM | 0.52 nM | COCCNC(=O)c1nc2c(cc1Cc1ccc(F)cc1)N(C(=O)CN1C[C@@H](C)NC[C@@H]1CN1[C@H](C)COC[C@H]1C)[C@@H](C)CO2 [Example 66, (S)-1-(2-((2R,5R)-2-(((3R,5R)-3,5-dimethylmorpholino)methyl)-5-methylpiperazin-1-yl)acetyl)-7-(4-fluorobenzyl)-N-(2-methoxyethyl)-2-methyl-2,3-dihydro-1H-pyrido[2,3-b][1,4]oxazine-6-carboxamide] |
| 3.8 nM | 0.22 nM | 0.34 nM | C[C@@H]1CN(CC(=O)N2c3cc(Cc4ccc(F)cc4)c(OCCN4CCOCC4)nc3OC[C@@H]2C)[C@@H](CN2[C@H](C)COC[C@H]2C)CN1 [Compound 90] |
| 17 nM | 0.5 nM | 0.92 nM | C[C@@H]1CN(CC(=O)N2CCOc3nc(Br)c(Cc4ccc(F)cc4)cc32)[C@@H](CN2CCOC[C@H]2C)CN1 [Compound 4, 1-(6-bromo-7-(4-fluorobenzyl)-2,3-dihydro-1H-pyrido[2,3-b][1,4]oxazin-1-yl)-2-((2R,5R)-5-methyl-2-(((R)-3-methylmorpholino)methyl)piperazin-1-yl)ethan-1-one] |
